Source: ChEMBL document CHEMBL5579838, “Design, synthesis and antitumor activity of a novel FGFR2-selective degrader to overcome resistance of the FGFR2V564F gatekeeper mutation based on a pan-FGFR inhibitor” (Eur J Med Chem, 2024)

target: Fibroblast growth factor receptor 2 (Homo sapiens, UniProt P21802); experiment: not given; conditions: not given
Sequence (P21802 whole entry): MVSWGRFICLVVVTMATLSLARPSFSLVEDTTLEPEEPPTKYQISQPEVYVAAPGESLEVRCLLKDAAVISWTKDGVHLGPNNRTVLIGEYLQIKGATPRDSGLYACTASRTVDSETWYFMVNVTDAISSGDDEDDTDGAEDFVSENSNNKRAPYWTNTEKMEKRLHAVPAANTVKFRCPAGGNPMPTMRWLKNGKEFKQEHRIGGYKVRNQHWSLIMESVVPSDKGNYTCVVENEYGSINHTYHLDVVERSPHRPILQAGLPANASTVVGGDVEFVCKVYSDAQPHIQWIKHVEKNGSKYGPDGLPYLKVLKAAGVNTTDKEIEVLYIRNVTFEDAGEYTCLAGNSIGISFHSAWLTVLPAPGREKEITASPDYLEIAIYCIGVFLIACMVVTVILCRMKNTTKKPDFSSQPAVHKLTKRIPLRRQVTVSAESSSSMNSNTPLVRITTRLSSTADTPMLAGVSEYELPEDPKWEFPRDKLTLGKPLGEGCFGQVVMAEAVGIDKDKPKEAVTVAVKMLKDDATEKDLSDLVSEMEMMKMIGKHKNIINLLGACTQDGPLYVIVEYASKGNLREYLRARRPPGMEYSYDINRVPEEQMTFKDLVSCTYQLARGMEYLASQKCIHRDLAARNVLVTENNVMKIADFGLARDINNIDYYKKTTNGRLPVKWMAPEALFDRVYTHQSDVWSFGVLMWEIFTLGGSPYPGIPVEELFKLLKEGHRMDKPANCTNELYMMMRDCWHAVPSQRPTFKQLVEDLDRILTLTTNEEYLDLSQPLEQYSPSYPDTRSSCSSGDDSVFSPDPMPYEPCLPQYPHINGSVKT

| IC50 [nM] | SMILES |
| --- | --- |
| 2.09 | C[C@@H](Oc1ccc2[nH]nc(/C=C/c3cnn(CCN)c3)c2c1)c1c(Cl)cncc1Cl |

tested on: KATO III stomach cancer cell line; experiment: cells; conditions: Homo sapiens, 72 h
Description: Antiproliferative activity against FGFR2 amplified human KATO III cells measured after 3 days by MTT assay

| IC50 [nM] | SMILES |
| --- | --- |
| 8.08 | C[C@@H](Oc1ccc2[nH]nc(/C=C/c3cnn(CCNC(=O)CCCNc4cccc5c4C(=O)N(C4CCC(=O)NC4=O)C5=O)c3)c2c1)c1c(Cl)cncc1Cl (stereo not given in full) |
| 17.5 | C[C@@H](Oc1ccc2[nH]nc(/C=C/c3cnn(CCNC(=O)CCCCNc4cccc5c4C(=O)N(C4CCC(=O)NC4=O)C5=O)c3)c2c1)c1c(Cl)cncc1Cl (stereo not given in full) |
| 10.4 | C[C@@H](Oc1ccc2[nH]nc(/C=C/c3cnn(CCNC(=O)CCCNc4ccc5c(c4)C(=O)N(C4CCC(=O)NC4=O)C5=O)c3)c2c1)c1c(Cl)cncc1Cl (stereo not given in full) |
| 20 | C[C@@H](Oc1ccc2[nH]nc(/C=C/c3cnn(CCNC(=O)CCCCNc4ccc5c(c4)C(=O)N(C4CCC(=O)NC4=O)C5=O)c3)c2c1)c1c(Cl)cncc1Cl (stereo not given in full) |
| 4.93 | C[C@@H](Oc1ccc2[nH]nc(/C=C/c3cnn(CCNC(=O)CCCCCNc4cccc5c4C(=O)N(C4CCC(=O)NC4=O)C5=O)c3)c2c1)c1c(Cl)cncc1Cl (stereo not given in full) |
| 6.83 | C[C@@H](Oc1ccc2[nH]nc(/C=C/c3cnn(CCNc4cccc5c4C(=O)N(C4CCC(=O)NC4=O)C5=O)c3)c2c1)c1c(Cl)cncc1Cl (stereo not given in full) |
| 22.4 | C[C@@H](Oc1ccc2[nH]nc(/C=C/c3cnn(CCNC(=O)CNc4cccc5c4C(=O)N(C4CCC(=O)NC4=O)C5=O)c3)c2c1)c1c(Cl)cncc1Cl (stereo not given in full) |
| 4.16 | C[C@@H](Oc1ccc2[nH]nc(/C=C/c3cnn(CCNC(=O)CCNc4cccc5c4C(=O)N(C4CCC(=O)NC4=O)C5=O)c3)c2c1)c1c(Cl)cncc1Cl (stereo not given in full) |
| 14.8 | C[C@@H](Oc1ccc2[nH]nc(/C=C/c3cnn(CCNC(=O)CCNc4ccc5c(c4)C(=O)N(C4CCC(=O)NC4=O)C5=O)c3)c2c1)c1c(Cl)cncc1Cl (stereo not given in full) |

Second part, the molecule before the results:

| SMILES | IC50 [nM] |
| --- | --- |
| C[C@@H](Oc1ccc2[nH]nc(/C=C/c3cnn(CCNC(=O)/C=C/C(=O)c4ccccc4)c3)c2c1)c1c(Cl)cncc1Cl | 15.4 |
| Cc1ncsc1-c1ccc(CNC(=O)[C@@H]2C[C@@H](O)CN2C(=O)[C@@H](NC(=O)CCCCC(=O)NCCn2cc(/C=C/c3n[nH]c4ccc(O[C@H](C)c5c(Cl)cncc5Cl)cc34)cn2)C(C)(C)C)cc1 | > 50 |
| C[C@@H](Oc1ccc2[nH]nc(/C=C/c3cnn(CCNC(=O)CNc4ccc5c(c4)C(=O)N(C4CCC(=O)NC4=O)C5=O)c3)c2c1)c1c(Cl)cncc1Cl (stereo not given in full) | 47 |
| C[C@@H](Oc1ccc2[nH]nc(/C=C/c3cnn(CCNC(=O)/C=C/c4cc(C(F)(F)F)cc(C(F)(F)F)c4)c3)c2c1)c1c(Cl)cncc1Cl | > 50 |
| C[C@@H](Oc1ccc2[nH]nc(/C=C/c3cnn(CCNC(=O)/C=C/C(=O)c4ccc(Br)cc4)c3)c2c1)c1c(Cl)cncc1Cl | 46.6 |
| COc1ccc(C(=O)/C=C/C(=O)NCCn2cc(/C=C/c3n[nH]c4ccc(O[C@H](C)c5c(Cl)cncc5Cl)cc34)cn2)cc1 | 10.1 |
| Cc1ncsc1-c1ccc(CNC(=O)[C@@H]2C[C@@H](O)CN2C(=O)[C@@H](NC(=O)CCC(=O)NCCn2cc(/C=C/c3n[nH]c4ccc(O[C@H](C)c5c(Cl)cncc5Cl)cc34)cn2)C(C)(C)C)cc1 | > 50 |
| C[C@@H](Oc1ccc2[nH]nc(/C=C/c3cnn(CCNC(=O)/C=C/c4cccc(C(F)(F)F)c4)c3)c2c1)c1c(Cl)cncc1Cl | 39.2 |
| Cc1ncsc1-c1ccc(CNC(=O)[C@@H]2C[C@@H](O)CN2C(=O)[C@@H](NC(=O)CCCC(=O)NCCn2cc(/C=C/c3n[nH]c4ccc(O[C@H](C)c5c(Cl)cncc5Cl)cc34)cn2)C(C)(C)C)cc1 | > 50 |
| C[C@@H](Oc1ccc2[nH]nc(/C=C/c3cnn(CCNc4ccc5c(c4)C(=O)N(C4CCC(=O)NC4=O)C5=O)c3)c2c1)c1c(Cl)cncc1Cl (stereo not given in full) | 7.29 |
| C[C@@H](Oc1ccc2[nH]nc(/C=C/c3cnn(CCNC(=O)/C=C/C(=O)c4ccc(Cl)cc4)c3)c2c1)c1c(Cl)cncc1Cl | > 50 |
| C[C@@H](Oc1ccc2[nH]nc(/C=C/c3cnn(CCNC(=O)/C=C/C(=O)c4ccc(F)cc4)c3)c2c1)c1c(Cl)cncc1Cl | 12.1 |
| Cc1ncsc1-c1ccc(CNC(=O)[C@@H]2C[C@@H](O)CN2C(=O)[C@@H](NC(=O)CCCCCC(=O)NCCn2cc(/C=C/c3n[nH]c4ccc(O[C@H](C)c5c(Cl)cncc5Cl)cc34)cn2)C(C)(C)C)cc1 | > 50 |
| Cc1ncsc1-c1ccc(CNC(=O)[C@@H]2C[C@@H](O)CN2C(=O)[C@@H](NC(=O)CCC(=O)NCn2cc(/C=C/c3n[nH]c4ccc(O[C@H](C)c5c(Cl)cncc5Cl)cc34)cn2)C(C)(C)C)cc1 | > 50 |
| C[C@@H](Oc1ccc2[nH]nc(/C=C/c3cnn(CCNC(=O)/C=C/c4ccc(C(F)(F)F)cc4)c3)c2c1)c1c(Cl)cncc1Cl | 41.8 |
